LC retention time data for 63 molecules are collected here from the RepoRT retention time repository (doi:10.1038/s41597-019-0305-1).

Each structure is given as a SMILES string.

A short description of this data set: RP, Waters SunFire C18, 50 × 4.6 mm, 3.5 µm, 0.5 mL/min, estimated dead time 1.1 min; A: water + 0.1% formic acid; B: acetonitrile + 0.1% formic acid; gradient (min/%B) 0/5 7/100 8/100. To be noted: stereoisomer not certain.

`COC1=CC(=O)C(=O)c2cc3oc(C)cc(=O)c3c(OC)c21`: the LC retention time was 4.03 min.
Next, `CCC(C)C(NC(=O)c1ccccc1)C(=O)OCC(NC(=O)c1ccccc1)C(C)C` (stereo not drawn): 6.17 min.
Next, `COC(=O)c1c(C)cc(OC(=O)c2c(C)cc(OC(=O)c3c(C)cc(OC)cc3O)cc2O)cc1O`: 7.74 min; `O=C(O)c1cc(O)c2c(c1)C(=O)c1cc(O)cc(O)c1C2=O`: 5.06 min; `Cc1cc(O)cc2oc3cc(O)c4c(c3c12)COC4=O`: 4.72 min.
Take `Cc1cc(O)cc(O)c1C(=O)O`: the LC retention time is 3.41 min.
Next, `COC(=O)c1c(C)cc(O)c(C)c1O`: 5.37 min; `CCCc1cc(OC(=O)c2c(O)cc(OC)cc2CCC)cc(O)c1C(=O)O`: 7.33 min; `COc1cc(C)c2c(c1C=O)Oc1c(c(CO)c(O)c3c1C(O)OC3=O)OC2=O` (stereo not drawn): 4.06 min.
With `Cc1cc(O)c2c(oc3cc(O)c4c(c32)COC4=O)c1C(=O)O`, the LC retention time is 3.95 min.
Next, `Cc1cc(OC(=O)c2c(C)cc(O)c(O)c2O)cc(O)c1C(=O)O`: 4.69 min; `Cc1cc(=O)c2c(O)c(C)c(O)cc2o1`: 4.52 min.
Consider `Cc1cc(O)c(C)c(O)c1`, for which the LC retention time is 3.25 min.
As to `CC1OC2(C(C)C(O)C1C)C(C)C1OC(=O)C2(C)C(=O)C1C` (stereo not drawn), the LC retention time is 5.25 min.
Regarding `COc1cc(C)c(C)c(OC(=O)c2c(C)c(C=O)c(O)c(C=O)c2O)c1C`, the LC retention time was 6.73 min.
With `COC(=O)c1c(C)cc(O)cc1O`, the LC retention time is 4.63 min.
For the molecule `Cc1cc(O)c2c(c1)C(=O)c1cccc(O)c1C2=O`, the LC retention time is 6.39 min.
As to `COc1cc(O)cc(C)c1C(=O)Oc1cc(C)c(C(=O)Oc2cc(C)c(C(=O)O)c(O)c2)c(O)c1`, the LC retention time was 6.17 min.
For the molecule `CCCCCc1c(C(=O)O)c(O)cc2oc3cc(OC)cc(CCC)c3c12`, the LC retention time is 7.09 min.
Next, `Cc1cc(O)c(C=O)c(O)c1C(=O)OCc1cc(O)c(C=O)c(O)c1C(=O)O`: 7.26 min; `CCCCCc1cc(OC(=O)c2c(CCCCC)cc(OC)cc2OC)cc(OC)c1C(=O)O`: 7.52 min.
In the case of `Cc1cc(O)c(C=O)c(O)c1`, the LC retention time was 4.33 min.
Regarding `Cc1cc(O)c(C=O)c2c1C(=O)Oc1c(C)c(O)c3c(c1O2)C(O)OC3=O` (stereo not drawn), the LC retention time was 5.3 min.
Next, `CCCCCCCCCCCCCC1OC(=O)C(C)C1C(=O)O` (stereo not drawn): 8 min; `CCCCCC1=CC(=O)C=C(OC)C12C(=O)Oc1cc(O)c(C(=O)O)c(CCCCC)c12` (stereo not drawn): 7.48 min.
For the molecule `COC1=CC(=O)c2c(O)c3c(c(O)c2C1=O)C(O)C(C)OC3=O` (stereo not drawn), the LC retention time is 4.23 min.
For the molecule `O=C1OC2=C(c3ccccc3)C(=O)OC2=C1c1ccccc1`, the LC retention time is 7.64 min.
Next, `Cc1cc(O)cc(O)c1C(=O)Oc1cc(C)c(C(=O)Oc2c(O)cc(O)c(C(=O)O)c2C)c(O)c1`: 5.63 min; `CC(=O)OCC1OC(Oc2cc(O)c3c(=O)cc(C)oc3c2C)C(OC(C)=O)C(OC(C)=O)C1O` (stereo not drawn): 5.4 min; `Cc1cc(O)c(C)c(O)c1C(=O)O`: 3.99 min.
On to `CC(=O)OC1C(C)C(C)OC2(C(C)C3OC(=O)C2(C)C(=O)C3C)C1C` (stereo not drawn), for which the LC retention time is 5.84 min.
As to `COC1=CC(=O)c2c(OC(C)=O)c3c(c(O)c2C1=O)CC(C)OC3=O` (stereo not drawn), the LC retention time is 6.99 min.
On to `CCCc1cc(O)cc(O)c1`, for which the LC retention time is 3.97 min.
`CCCCCc1cc2cc(O)cc(O)c2c(=O)o1`: the LC retention time was 6.08 min.
For the molecule `CC1CCCCCCCCCCC(O)C(O)C(O)C=CC(=O)O1` (stereo not drawn), the LC retention time was 5.65 min.
For `COC(=O)c1c(C)cc(O)c(C=O)c1O`, the LC retention time was 5.48 min.
In the case of `COC(=O)C(=C1OC(=O)C(c2ccccc2)=C1O)c1ccccc1OC`, the LC retention time was 6.75 min.
Next, `COc1cc(C)c(C(=O)Oc2cc(C)c(C(=O)O)c(O)c2C)c(O)c1C`: 7.26 min; `CC(=O)CCCCCCCCCCCCCC1OC(=O)C(C)=C1C(=O)O` (stereo not drawn): 6.9 min.
Next, `COC(=O)C(=C1OC(=O)C(c2ccccc2)=C1O)c1ccccc1`: 7.49 min.
Consider `COC(=O)C12Oc3ccc(-c4ccc5c(c4O)C(O)=C4C(=O)CC(C)C(O)C4(C(=O)OC)O5)c(O)c3C(O)=C1C(=O)CC(C)C2O` (stereo not drawn), for which the LC retention time was 6 min.
Next, `Cc1cc(O)c2c(=O)c3c(C)cc(O)cc3oc2c1`: 6.34 min; `CC1CCC2(C(=O)O)CCC3(C)C(=CCC4C5(C)CCC(O)C(C)(C)C5CCC43C)C2C1C` (stereo not drawn): 7.89 min; `COC12CC(=O)C(C(C)=O)=C(O)C1(C)c1c(O)c(C)c(O)c(C(C)=O)c1O2` (stereo not drawn): 7.08 min.
With `COC1=C(O)c2cc3oc(C(C)=O)c(O)c3c(O)c2C(=O)C1=O`, the LC retention time is 4.27 min.
As for `CCCCCC(=O)Cc1cc(O)cc2c1C(=O)Oc1cc(O)c(C(=O)O)c(CC(=O)CCCCC)c1O2`, the LC retention time is 7.64 min.
For `CCOCc1c(O)c(C(=O)O)c(C)c2c1OC(=O)c1c(C)cc(O)c(C=O)c1O2`, the LC retention time is 7.27 min.
Next, `CCCCCC(=O)Cc1cc(O)cc(O)c1C(=O)Oc1cc(O)c(C(=O)O)c(CCCCC)c1`: 6.74 min; `Cc1cc(O)c2c(c1)oc1cc(O)cc(C)c12`: 7.4 min; `CCCc1cc(O)cc(O)c1C(=O)O`: 4.15 min.
Next, `COc1cc(CCC(C(=O)[O-])[N+](C)(C)C)cc(OC)c1O` (stereo not drawn): 6.6 min.
Turning to `CC(=O)c1c(O)cc(O)cc1O`, the LC retention time was 3.77 min.
Next, `COc1cc(C)c(C(=O)Oc2cc(C)c(C(=O)O)c(O)c2C)c(O)c1C=O`: 6.35 min; `COc1cc(C)c(C(=O)O)c(O)c1C`: 5.09 min.
With `Cc1cc(O)c(C=O)c(O)c1C(=O)O`, the LC retention time was 7.07 min.
Next, `CCCCCc1cc(OC)cc(O)c1C(=O)Oc1cc(O)c(C(=O)O)c(CCC)c1`: 7.47 min; `COC(=O)c1c(C)c(C)c(OC(=O)c2c(C)c(C)c(O)c(C=O)c2O)c(C)c1O`: 7.84 min.
Next, `O=C1OC(=C2C(=O)Oc3ccccc32)C(O)=C1c1ccccc1`: 7.68 min; `CCCc1cc(OC)cc(O)c1C(=O)Oc1c(OC)cc(CCC)c(C(=O)O)c1O`: 7.83 min; `CCCCCc1cc(OC(=O)c2c(O)cc(O)cc2CCCCC)cc(O)c1C(=O)O`: 7.28 min.
Next, `Cc1cc(O)c(C=O)c2c1C(=O)Oc1c(COC(=O)C=CC(=O)O)c(O)c(C(=O)O)c(C)c1O2`: 6.04 min.
Turning to `Cc1cc(OC(=O)c2c(C)cc(O)cc2O)cc(O)c1C(=O)OCC(O)C(O)CO` (stereo not drawn), the LC retention time is 4.52 min.
As for `COC(=O)C(=C1OC(=O)C(c2ccc(OC)cc2)=C1O)c1ccccc1`, the LC retention time is 6.71 min.
